Our source for the IC50 values is patent publication US4451464A, “Trifluoromethyl substituted tricyclic quinazolinones useful as tranquilizers” (Sandoz, Inc., priority 1982, dated 1984).

The target of the assay is calf brain benzodiazepine receptors (calf brain cortex). As to the kind of experiment: Flunitrazepam Receptor Binding Assay, FBA TEST No. 2 (inhibition of specific 3H-flunitrazepam binding). Conditions: 1.5 nM [3H]-Flunitrazepam, 15 min at 0° C., read-out: IC50 (concentration which inhibits specific binding of 3H-Flunitrazepam by 50%). The method, then:
Substantially similar results are obtainable in a Flunitrazepam Receptor Binding Assay as described by Chang et al., Eur. J. Pharmacol., 48, 213 (1978): when carried out with the non-substantive modifications evident from the following description (hereinafter FBA TEST No. 2): Fresh calf brain cortex is homogenized in a 19 fold volume of Tris-HCl buffer pH 7.4, using a Brinkman Polytron PT 20 and centrifuged at 50'000 g for […]. The pellets are frozen at -20° C. and resuspended in a 400 fold volume of Tris-buffer pH 7.4 before use for the binding assay. The assay mixtures consist of 1.8 ml of homogenate (corresponding to 4.5 mg of original tissue), 0.1 ml [^3 H]-Flunitrazepam (final concentration 1.5 nM), and 0.1 ml of buffer for determination of total binding or 0.1 ml of unlabelled Flunitrazepam (final concentration 1 μM) for determination of nonspecific binding, respectively. To assess the potency of various drugs in inhibiting specific binding, drugs are added (instead of buffer) to give 5 to 9 different concentrations between 1 nM and 10 μM, each in duplicate. After incubation for 15 min at 0° C., the assay mixtures are rapidly filtered through Whatman GF/B filters and washed twice with 5 ml of ice cold Tris-buffer. The filters are counted in Rialuma on a LKB Rach-Beta Liquid Scintillation Counter. […]

Turning to `CCCCN1CCn2c1nc1ccc(C(F)(F)F)cc1c2=O` [Example 2, 1-n-butyl-7-trifluoromethyl-2,3-dihydro-imidazo[2,1-b]quinazolin-5(1H)-one], the IC50 was found to be 15 nM.
